Results on 9 compounds are retold here after patent publication US9072751B2, “Na/K-ATPase ligand” (priority 2006, dated 2015).

The subject of data set [1] is isolated cardiac fibroblasts. It is filed as cell-based, rat. The note with it: for Effect on MBG stimulation of collagen synthesis (procollagen expression): MBG 10 nM 24 h, PP2 1 μmol/L, herbimycin 1 μmol/L, AG1478 250 nM, N-acetyl cysteine 2.5 mmol/L from 2 hours before. As to the method:
(§1) Preparation of adult rat cardiac fibroblasts was performed as described previously by Brilla et al. with modifications.
Western blot analysis was performed on protein isolated from tissue homogenates, cell culture whole cell lysates, or nuclear extracts as described previously.
(§2) Representative Western blot for procollagen and quantitative densitometric data obtained in response to different doses of (a) MBG (all N=10), (b) MBG 10 nM contrasted with different doses of ouabain (0.1 to 100 nM) and digoxin (10 nM; all N=8). c, ouabain sensitive Rb uptake as a function of MBG and ouabain concentration (N=4 at each concentration for both MBG and ouabain; data expressed as fraction of control). d, relative proline incorporation in the supernatant and matrix, both will and without collagenase digestion (total). Each group (controls and different doses of MBG) contains N=7 replicants. The difference between the total and after collagenase digestion is reported as collagen. The matrix is the sample that was obtained after removing supernatant and scraping the culture dish. e, mRNA for collagen 1 in MBG-treated (10 nM; N=8) or control (N=8) fibroblasts. f, procollagen stability after cycloheximide treatment. Time 0 is 1 hour after incubation with cycloheximide (20 μg/mL). […] Least-square regression line fit to control (CTL) and MBG data. Bars on quantitative graphs represent the mean.+−.SEM. *P<0.05 and **P<0.01 vs control.
(§3) The PP2, herbimycin AG1478, and N-acetyl cysteine were administered from 2 hours before the addition of MBG and continued throughout the 24 hours of MBG incubation (total of 26 hours). Each bar represents the mean.+−.SEM of n=8 experiments. b, effects of PP2 (1 μmol/L) and N-acetyle cysteine (2.5 mmol/L) on MBG (10 nM)-stimulated proline incorporation into collagen. Again, the PP2 an N-acetyl cysteine were added 2 hours before exposure to MBG. Each bar represents the mean.+−.SEM of N=5 experiments. c, effects of MBG 10 nM on procollagen content in SYF and SYF+ cells. Representative Western blots are shown above quantitative data. SYF blots loaded with 15 μg of protein and SYF+blots loaded with 10 μg of protein. Each bar represents the mean.+−SEM of N-6 determinations In each group. **P<01.10 vs. control.
(§4) The effect of 24 hours of MBG (1 and 10 nM) on TGF-β, Smad 2/3, Smad 4, and pSmad 2/3 expression determined by Western blot. b and c, effects of 24 hours of MBG (10 nM), TGFβ(5 ng/mL), and the TGF-β receptor antagonist SB431542 ([…] on procollagen-1 expression (Western blot) and radiolabeled proline incorporation, respectively also were carried out. SB431542 was added 2 hours before exposure to either TGFβ or MBG (total of 26-hour exposure). Each bar represents the mean.+−.SEM of 6 to 8 determinations. *P<0.05, **P<0.01 vs. control.

For data set [2], the system named is isolated cardiac fibroblasts. Briefly: Radiolabeled proline incorporation into collagen (collagen synthesis) in cardiac fibroblasts. The class given is cell-based, rat. The note with it: for Effect on MBG-stimulated proline incorporation into collagen: MBG 10 nM, PP2 1 μmol/L, N-acetyl cysteine 2.5 mmol/L added 2 hours before. As to the method:
as §1
Collagen synthesis rates were determined by the method of Nishida et al. with modification.
(§5) To further examine the molecular basis of this cardiac fibrosis, isolated cardiac fibroblasts were subjected to increase doses of MBG (10^−10, 10^−9, and 10^−8 M). […] Using collagenase digestion, we observed that the vast majority of the proline incorporation was into collagen. Using standardized RT-PCR, we observed a doubling of mRNA for collagen-1 at 24 hours in response to 10 nM of MBG.
as §2
as §3, with “The effects of PP2 (1 μmol/L), herbimycin (1 μmol/L), AG1478 (250 nM), and N-acetyl cysteine (2.5 mmol/L) on MBG (10 nM) stimulation of procollagen expression also were found. The” for “The”
as §4

A further data set concerns fibroblast cell line. Briefly: Procollagen expression in immortalized fibroblast cell line (Western blot). The class given is cell-based. The source says: We next examined whether skin fibroblasts lines had similar response. This was done with dermal fibroblasts kindly provided by Dr. Bashar Kahaleh. […] The magnitude of this response is illustrated by comparison to maximal doses of TGFβ, the “classic” stimulus for fibrosis (see below). In addition, we observed that an immortalized fibroblast line responded similarly to MBG, ouabain and digoxin.
Response of dermal fibroblasts to MBG as compared with TGF beta. Note that increase in collagen expression in MBG is approximately 10 fold with 5 or 10 nM MBG.

For data set [3] the following is noted: cited from earlier work.
A further data set has as its system fibroblasts. The following applies: 48 hours, 15 ng/mL; cited from earlier work.
A further data set addresses T1, Na/K-ATPase (Rattus norvegicus, UniProt P06685).
T1 construct: In vitro studies were then pursued with cultured isolated cardiac fibroblasts; endogenous in cells; host or cells: primary isolated cardiac fibroblasts in culture
Briefly: Ouabain sensitive 86Rb uptake in cardiac fibroblasts. It is filed as cell-based. As to the method:
as §5
Representative Western blot for procollagen and quantitative densitometric data obtained in response to different doses of (a) MBG (all N=10), (b) MBG 10 nM contrasted with different doses of ouabain (0.1 to 100 nM) and digoxin (10 nM; all N=8). c, ouabain sensitive Rb uptake as a function of MBG and ouabain concentration (N=4 at each concentration for both MBG and ouabain; data expressed as fraction of control). d, relative proline incorporation in the supernatant and matrix, both will and without collagenase digestion (total). Each group (controls and different doses of MBG) contains N=7 replicants. The difference between the total and after collagenase digestion is reported as collagen. […] Bars on quantitative graphs represent the mean.+−.SEM. *P<0.05 and **P<0.01 vs control.

The next data set deals with SYF cells. Briefly: Procollagen expression in SYF cells. The note with it: MBG 10 nM. The class given is cell-based.
From the text: (§6) To examine whether cardiotronic steroids induced collagen synthesis by signaling through the Na/K-ATPase, we performed the following studies. First, we used pharmacological antagonism at several steps in the Na/K-ATPase cascade. Specifically, we used pharmacological antagonism of Src activation with PP2, nonspecific tyrosine kinase inhibition with herbimycin, inhibition of EGFR transactivation with AG1478, and nonspecific antioxidant administration with N-acetyle cysteine. […] Next we performed studies in the SYF and SYF+ cells (details available in the online supplement).
as §3, with “The effects of PP2 (1 μmol/L), herbimycin (1 μmol/L), AG1478 (250 nM), and N-acetyl cysteine (2.5 mmol/L) on MBG (10 nM) stimulation of procollagen expression also were found. The” for “The”, “SYF blots loaded with 15 μg of protein and SYF+blots loaded with 10 μg of protein. Each bar represents the mean.+−SEM of N-6 determinations In each group. **P<01.10 vs. control.” left out

The subject of the next data set is SYF+ cells. Briefly: Procollagen expression in SYF+ cells. The class given is cell-based. The following applies: MBG 10 nM.
From the text: as §6
as §3, with “The effects of PP2 (1 μmol/L), herbimycin (1 μmol/L), AG1478 (250 nM), and N-acetyl cysteine (2.5 mmol/L) on MBG (10 nM) stimulation of procollagen expression also were found. The” for “The”, “SYF blots loaded with 15 μg of protein and SYF+blots loaded with 10 μg of protein. Each bar represents the mean.+−SEM of N-6 determinations In each group. **P<01.10 vs. control.” left out

The next data set has as its system Milan hypertensive rats. The following applies: cited from earlier work.

For `CO[C@H]1[C@@H](OC)C[C@H](C)[C@@H](OC)C2=CC(=O)C=C(NC(=O)/C(C)=C/C=C\[C@H](OC)[C@@H](OC(N)=O)/C(C)=C/[C@@H]1C)C2=O` [herbimycin], the “Effect on MBG stimulation of collagen synthesis (procollagen expression)” value (shortened to “Effect on MBG stimulation”) in [1] is listed as “prevented MBG stimulation of collagen synthesis”.
Take `COc1cc2ncnc(Nc3cccc(Cl)c3)c2cc1OC` [AG1478]: the “Effect on MBG stimulation” value in [1] is “prevented MBG stimulation of collagen synthesis”.
For `CC(C)(C)n1nc(-c2ccc(Cl)cc2)c2c(N)ncnc21` [PP2], in data set [2], the “Effect on MBG-stimulated proline incorporation into collagen” value is reported as “prevented increases in proline incorporation into collagen”. Besides, the “Effect on MBG stimulation” value in data set [1] was “prevented MBG stimulation of collagen synthesis”.
With `NC(=O)c1ccc(-c2nc(-c3ccc4c(c3)OCO4)c(-c3ccccn3)[nH]2)cc1` [SB431542], the “Radiolabeled proline incorporation relative to control cells” value in data set [2] (100-μmol/L) is reported as “did decrease radiolabeled proline incorporation below that seen with control cells”. In addition, the “Effect on TGF-β and MBG (10 nM) stimulation of radiolabeled proline incorporation” value in data set [2] (SB431542 added 2 hours before) is “completely blocked”. For the same compound, the “Procollagen expression relative to baseline (Western blot)” value in [1] (100-μmol/L) is recorded as “did not educe procollagen expression below baseline”. In addition, the “Effect on TGF-β and MBG (10 nM) stimulation of collagen expression” value in data set [1] (SB431542 added 2 hours before) is on record as “completely blocked”.
`CC(=O)N[C@@H](CS)C(=O)O` [N-acetyl cysteine]: the “Effect on MBG-stimulated proline incorporation into collagen” value in data set [2] is “prevented increases in proline incorporation into collagen”. For the same compound, the “Effect on MBG stimulation” value in data set [1] is recorded as “prevented MBG stimulation of collagen synthesis”.
On to `C[C@H]1O[C@@H](O[C@H]2[C@@H](O)C[C@H](O[C@H]3[C@@H](O)C[C@H](O[C@H]4CC[C@@]5(C)[C@H](CC[C@@H]6[C@@H]5C[C@@H](O)[C@]5(C)[C@@H](C7=CC(=O)OC7)CC[C@]65O)C4)O[C@@H]3C)O[C@@H]2C)C[C@H](O)[C@@H]1O` [digoxin], for which, in the data set on fibroblast cell line, the “Effect on fibroblast cell line expression of procollagen” value was “Comparable effect”. Besides, in data set [3] (human, in vivo), the “Free fraction of plasma digoxin” value is 70% to 80%. Further, the “Total digoxin levels typically maintained in patients” value in [3] (patients treated with digoxin) is listed as below 2 ng/mL.
Take TGF-β: the “Synergism with MBG on procollagen expression” value in [1] (TGF-β 5 ng/mL and MBG 10 nM) is listed as “did not note any synergism”. The “Maximal increase in collagen production” value in the data set with fibroblasts is listed as 2 times.
As to `C[C@@H]1O[C@@H](O[C@H]2C[C@@H](O)[C@]3(CO)[C@H]4[C@H](O)C[C@]5(C)[C@@H](C6=CC(=O)OC6)CC[C@]5(O)[C@@H]4CC[C@]3(O)C2)[C@H](O)[C@H](O)[C@H]1O` [ouabain, reference compound], the “Effect on fibroblast cell line expression of procollagen” value in the data set on fibroblast cell line is “Comparable effect”. Besides, on Na/K-ATPase, the “Threshold for inducing collagen expression relative to doses with detectable effects on 86Rb uptake” value is “log units below”. In addition, the “Response of procollagen expression in SYF cells” value in the data set on SYF cells is “essentially no response”. In addition, the “Upregulation of procollagen expression in SYF+ cells” value in the data set with SYF+ cells is recorded as “very similar way as the primary cardiac fibroblast cultures”.
`C[C@]12CC[C@H](O)C[C@H]1CC[C@@H]1[C@@H]2CC[C@]2(C)[C@@](O)(c3ccoc3)CC[C@]12O` [PST 2238]: the “Effect on hypertension and cardiac hypertrophy” value with Milan hypertensive rats is reported as “ameliorates hypertension, as well as cardiac hypertrophy”.
